{
  "source": "patent US6703216B2",
  "about": "“Methods, compositions and apparatuses for detection of gamma-hydroxybutyric acid (GHB)” (priority 2002, dated 2004)",
  "key": {"GHB-DH fusion protein [1]": {"biological_target": "T1, GHB-DH fusion protein (Cupriavidus necator, UniProt Q59104)", "assay_type": "biochemical, Ralstonia eutropha", "parameters": "made in house; host or cells: E. coli pLysS cells (Novagene), vector pGEX-2T/GHB-DH", "description": "A number of potential stabilizing agents were tested for their suitability in stabilizing a formulation of a GST fusion protein comprising the R. eutropha SSA reductase. Enzymatic activity of the purified fusion protein was studied after storage in different formulations for 21 days at 4° C. […] A range of concentrations of ammonium sulfate and glycerol were tested. […] GHB-DH may contain bound iron and copper ions (Wolf, 1995), which chelating agents can sequester and thereby denature and/or inactivate the oxidoreductase.\nEnzymatic assay for GHB based on formation of NADH. GHB-DH activity was assayed at 23° C. in 1 ml of buffer (97 mM 2-amino-2-methyl-1,3-propanediol (AMPD) adjusted to pH 8.5 with HCl) containing 14 μg purified fusion protein and 1 mM NAD^+ in a cuvette of 1 cm path length at 23° C. (Valentin, 1995). Reaction was initiated by the addition of GHB to 20 mM, and formation of NADH was monitored by the increase in absorbance at 334 nm (FIG. 4A).\nStability of fusion protein. The GHB-DH enzymatic activity of R. eutropha GHB-DH fusion protein was studied after storage for 21 days at 4° C. under various conditions (FIG. 5). Fourteen μg of protein was assayed using the method described in Example 4. Test enzyme solutions included the crude lysate, purified fusion protein at 7 mg/ml in 50 mM NaCl and 30 mM MOPS adjusted to pH 7.4 with NaOH, and purified fusion protein at 7 mg/ml in the same buffer also containing potential stabilizing agents."}, "O=C(O)CCCO": {"system": "O=C(O)CCCO", "assay": "purified protein, by the assay type", "details": "other: GHB as substrate, 5 μg fusion protein, pH 8.5, 23° C."}, "[2]": {"biological_target": "purified GHB-DH fusion protein (Cupriavidus necator, UniProt Q59104)", "details": "for weaker affinity for GHB-DH than GHB: ethanol relative to GHB"}, "[3]": {"details": "150-pound person, cited from earlier work"}, "GHB-DH fusion protein [4]": {"biological_target": "T1, GHB-DH fusion protein", "assay": "Detection of GHB in human urine on filter paper"}, "R. eutropha GHB-DH [5]": {"biological_target": "T2, R. eutropha GHB-DH (Cupriavidus necator, UniProt Q59104)", "assay": "Economical dipstick assay for GHB in alcoholic beverages after evaporation"}, "R. eutropha GHB-DH [6]": {"biological_target": "T2, R. eutropha GHB-DH", "assay_type": "biochemical, Ralstonia eutropha", "parameters": "made in house; host or cells: E. coli pLysS cells (Novagene), vector pGEX-2T/GHB-DH", "details": "20 mM GHB in the same concentrations of ethanol"}, "GHB-DH fusion protein [7]": {"biological_target": "T1, GHB-DH fusion protein", "assay_type": "biochemical, Ralstonia eutropha", "parameters": "made in house; host or cells: E. coli pLysS cells (Novagene), vector pGEX-2T/GHB-DH", "remark": "listed apart in the source"}, "[8]": {"details": "purified fusion protein 7 mg/ml, 21 days at 4° C."}},
  "note": "Read-outs that look alike come from different tables or passages of the source.",
  "data": [
    {"compound": "OCCS", "note": "[BME, 2-mercaptoethanol]", "values": [
      {"measurement": "effect of agent on enzyme activity during storage", "setting": "GHB-DH fusion protein [1]; [8]", "result": "nearly completely inactivated enzyme activity"},
      {"measurement": "effect of agent on enzyme activity during storage", "setting": "GHB-DH fusion protein [1]; purified fusion protein 7 mg/ml, 21 days at 4° C., listed as beta-mercaptoethanol", "result": "drastically diminished enzyme activity"}
    ]},
    {"compound": "purified GHB-DH fusion protein (Cupriavidus necator)", "values": [
      {"measurement": "Km", "setting": "O=C(O)CCCO", "result": "2.19 ± 0.13", "unit": "mM"}
    ]},
    {"compound": "O=C(O)CN(CCN(CC(=O)O)CC(=O)O)CC(=O)O", "note": "[EDTA, ethylene diamine tetraacetic acid]", "values": [
      {"measurement": "effect of agent on enzyme activity during storage", "setting": "GHB-DH fusion protein [1]; [8]", "result": "nearly totally inactivated enzyme activity"},
      {"measurement": "effect of agent on enzyme activity during storage", "setting": "GHB-DH fusion protein [1]; purified fusion protein 7 mg/ml, 21 days at 4° C., listed as ethylene diamine tetraacetic acid", "result": "drastically diminished enzyme activity"}
    ]},
    {"compound": "O[C@H](CS)[C@H](O)CS", "note": "(racemic) [DTT, dithiothreitol]", "values": [
      {"measurement": "effect of agent on enzyme activity during storage", "setting": "GHB-DH fusion protein [1]; [8]", "result": "nearly completely inactivated enzyme activity"},
      {"measurement": "effect of agent on enzyme activity during storage", "setting": "GHB-DH fusion protein [1]; purified fusion protein 7 mg/ml, 21 days at 4° C., listed as dithiothreitol", "result": "drastically diminished enzyme activity"}
    ]},
    {"compound": "O=C(O)CCCO", "note": "[GHB, 4-hydroxy-butanoic acid]", "values": [
      {"measurement": "Vmax", "setting": "[2]; GHB as substrate (FIG. 6A)", "result": "0.049±0.001", "unit": "A/min/μg"},
      {"measurement": "Vmax", "setting": "[2]; GHB as substrate, 5 μg fusion protein", "result": "0.049±0.001 Absorbance/min/μg fusion protein"},
      {"measurement": "effect in a person", "setting": "[3]; 1-gram dose", "result": "low degree of effect"},
      {"measurement": "effect in a person", "setting": "[3]; 2.5-gram dose", "result": "coma"},
      {"measurement": "color produced", "setting": "GHB-DH fusion protein [4]; 0.1 mM GHB in human urine", "result": "slight but definite purple"},
      {"measurement": "color produced", "setting": "GHB-DH fusion protein [4]; 0.3 mM GHB in human urine", "result": "substantial purple"},
      {"measurement": "GHB concentration in urine producing color", "setting": "GHB-DH fusion protein [4]; human urine, dried or not dried, 5 minutes", "result": "≤ 0.1", "unit": "mM"},
      {"measurement": "color developed", "setting": "R. eutropha GHB-DH [5]; 20 mM GHB in 25 alcoholic beverages, 2 minutes", "result": "intense purple color"},
      {"measurement": "GHB concentration detected in alcoholic beverages", "setting": "R. eutropha GHB-DH [5]; evaporated sample, 2 minutes reaction at 23° C.", "result": "≤ 1", "unit": "mM"},
      {"measurement": "color produced on paper", "setting": "R. eutropha GHB-DH [6]", "result": "intense purple"},
      {"measurement": "GHB concentration readily detected", "setting": "GHB-DH fusion protein [7]; conjugated filters, assay buffer, 23° C.", "result": "≤ 2", "unit": "mM"}
    ]},
    {"compound": "reduced glutathione", "values": [
      {"measurement": "effect of agent on enzyme activity during storage", "setting": "GHB-DH fusion protein [1]; [8]", "result": "drastically diminished enzyme activity"},
      {"measurement": "effect of agent on enzyme activity during storage", "setting": "GHB-DH fusion protein [1]; purified fusion protein 7 mg/ml, 21 days at 4° C., listed as reduced GSH", "result": "nearly totally inactivated enzyme activity"}
    ]},
    {"compound": "OCC(O)CO", "note": "[glycerol]", "values": [
      {"measurement": "effect of agent on enzyme activity during storage", "setting": "GHB-DH fusion protein [1]; 5-20% glycerol, 4° C.", "result": "retained high degrees of enzyme activity"},
      {"measurement": "effect of agent on enzyme activity during storage", "setting": "GHB-DH fusion protein [1]; 10% glycerol, 21 days, 4° C.", "result": "greatest retention"},
      {"measurement": "effect of agent on enzyme activity during storage", "setting": "GHB-DH fusion protein [1]; 50% glycerol at 4° C.", "result": "deleterious"}
    ]},
    {"compound": "CCO", "note": "[Ethanol, ethanol]", "values": [
      {"measurement": "weaker affinity for GHB-DH than GHB", "setting": "[2]", "result": "about 200 fold"},
      {"measurement": "weaker affinity for GHB-DH than GHB", "setting": "[2]; listed as ethanol", "result": "approximately 200 fold"},
      {"measurement": "color produced", "setting": "GHB-DH fusion protein [7]; all concentrations of ethanol tested", "result": "little or no color"}
    ]},
    {"compound": "N.N.O=S(=O)(O)O", "note": "[ammonium sulfate]", "values": [
      {"measurement": "effect of agent on enzyme activity during storage", "setting": "GHB-DH fusion protein [1]; [8]", "result": "somewhat deleterious"},
      {"measurement": "enzyme activity lost during storage", "setting": "GHB-DH fusion protein [1]; range of concentrations of ammonium sulfate, 21 days at 4° C.", "result": "≥ 50", "unit": "%"}
    ]},
    {"compound": "oxidized glutathione", "values": [
      {"measurement": "effect of agent on enzyme activity during storage", "setting": "GHB-DH fusion protein [1]; [8]", "result": "drastically diminished enzyme activity"},
      {"measurement": "effect of agent on enzyme activity during storage", "setting": "GHB-DH fusion protein [1]; purified fusion protein 7 mg/ml, 21 days at 4° C., listed as oxidized GSH", "result": "nearly totally inactivated enzyme activity"}
    ]}
  ]
}
